Data set [1] addresses T1, purified AcpS of S. pneumoniae (Streptococcus pneumoniae, UniProt P0A2W7).
T1 construct: made in house; host or cells: E. coli BL21 (pLysS)/pRBP-19 (pET-11a)
T1 sequence (P0A2W7 1-120): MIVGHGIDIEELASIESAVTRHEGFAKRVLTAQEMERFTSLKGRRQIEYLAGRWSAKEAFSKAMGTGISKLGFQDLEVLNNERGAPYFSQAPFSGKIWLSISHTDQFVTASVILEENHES
Description: HPLC-based AcpS enzyme assay (conversion of apo-ACP to holo-ACP). It is filed as biochemical. The note with it: for relative activity as substrate of AcpS: CoA = 100, 1.5 μM apo-ACP, 20 μM CoA or CoA derivative, 19 nM AcpS; for Ki: 3.7 nM AcpS. The method, then:
(§1) Unless otherwise indicated, reaction mixtures contain 50 mM Tris-HCl, pH 7.0, 10 mM MgCl2, 2.5-50 μM CoA, 0.25-6.0 μM purified apo-ACP of S. pneumoniae, and 3.7 nM purified AcpS of S. pneumoniae, and are incubated at 37° C. for 9 min. Reactions are stopped by the addition of 50 mM EDTA. The formation of holo-ACP is determined by an HPLC or a trichloroacetic acid (TCA) precipitation method (see below). An HPLC-based assay is adapted from the method described previously (Lambalot and Walsh, 1997). This assay monitors the conversion of apo-ACP to holo-ACP. Reaction mixtures (100 μl each) are injected into an analytical HPLC column (Vydac protein C4 reverse-phase; P. J. Cobert Associates, Inc., St. Louis, Mo.) equilibrated with 45% acetonitrile in 0.1% trifluoroacetic acid. The column is eluted with an 8 ml linear gradient of 45-80% acetonitrile. The column elution profiles are monitored at 220 nm. Under these conditions, holo-ACP migrates faster than apo-ACP. The amount of holo-ACP formed is estimated by comparing the peak area of the holo-ACP formed with those of both apo- and holo-ACP.
To examine the substrate specificity of AcpS, a variety of CoA derivatives (acetyl-CoA, malonyl-CoA, acetoacetyl-CoA, desulfo-CoA, and dephospho-CoA) are tested. All reaction mixtures contain 1.5 μM apo-ACP, 20 μM CoA or CoA derivative, and 19 nM AcpS, and the formation of holo-ACP is determined by the HPLC method.
For the determination of Km and Vmax (kcat) of AcpS for apo-ACP, reaction mixtures (in quadruplicate) contain 20 μM CoA, 0.25 to 100 μM apo-ACP, and 3.7 nM. AcpS. The formation of holo-ACP is measured by the HPLC method or the TCA precipitation method. To determine Km for CoA, the reaction conditions are the same as those described above except that the concentration of apo-ACP is 2.0 μM, and the concentrations of CoA were 5 to 600 μM. […]
To evaluate the inhibition of AcpS activity by 3′,5′-ADP with respect to CoA, reaction mixtures contain 1-60 μM 3′,5′-ADP, 2.5-60 μM CoA, 1.0 μM apo-ACP, and 3.7 nM AcpS. To evaluate the inhibition of AcpS activity by 3′,5′-ADP with respect to apo-ACP, reaction mixtures contain 1-60 μM 3′,5′-ADP, 0.5-6.0 μM apo-ACP, 20 μM CoA, and 3.7 nM AcpS. The formation of holo-ACP is analyzed by the HPLC method.

Data set [2] has as its target T1, purified AcpS of S. pneumoniae. The data set can be described thus: Substrate binding to AcpS by gel filtration column chromatography, mass spectrometry and filter binding. As to conditions: 27 μM AcpS, 10 mM MgCl2, 100 μM apo-ACP or 50 μM CoA, room temperature 30 min. The method, then: To determine whether AcpS binds directly to apo-ACP or CoA in the absence of the other substrate, a purified AcpS preparation (27 μM) is first mixed with 10 mM MgCl2, and then either 100 μM apo-ACP or 50 μM CoA. The mixture is incubated at room temperature for 30 min and subjected to gel filtration column chromatography (S-75 Superdex) under the conditions described above. The fractions containing the AcpS-apo-ACP complex and unbound apo-ACP are analyzed by SDS-PAGE (16% tricine gels), SYPRO Orange staining, and mass spectrometry.
The order of substrate binding to AcpS can be analyzed by determining the binding of CoA and apo-ACP to purified AcpS by gel filtration column chromatography, mass spectrometry, or filter binding assays. If CoA binds to AcpS first and forms an enzyme-substrate complex that is required for the next reaction with apo-ACP, then a stable enzyme-substrate complex should be detectable. […]
Whether apo-ACP binds to AcpS in the absence of CoA, a mixture of AcpS and apo-ACP (apo-ACP/AcpS=5:1) can be subjected to gel filtration column chromatography and analysis of the column fractions by SDS-PAGE. […] Consistent with the formation of the AcpS-apo-ACP complex, the presence of apo-ACP is also detected in the fractions containing purified AcpS (FIG. 2B). […]
(In general: In gel filtration, larger molecules generally elute earlier.)

The target in data set [3] is Streptococcus pneumoniae apo-acyl carrier protein (apo-ACP).
Substrate in data set [4]: CC(C)(COP(=O)(O)OP(=O)(O)OC[C@H]1O[C@@H](n2cnc3c(N)ncnc32)[C@H](O)[C@@H]1OP(=O)(O)O)[C@@H](O)C(=O)NCCC(=O)NCCS
Description: HPLC-based AcpS enzyme assay (conversion of apo-ACP to holo-ACP). It counts as biochemical, Streptococcus pneumoniae. The note with it: other: fixed apo-ACP 2 μM, various CoA, HPLC method; pH 7.0; 37.0 °C. The method, then: as §1, with “The amount of holo-ACP formed is estimated by comparing the peak area of the holo-ACP formed with those of both apo- and holo-ACP.” left out
To examine the substrate specificity of AcpS, a variety of CoA derivatives (acetyl-CoA, malonyl-CoA, acetoacetyl-CoA, desulfo-CoA, and dephospho-CoA) are tested. All reaction mixtures contain 1.5 μM apo-ACP, 20 μM CoA or CoA derivative, and 19 nM AcpS, and the formation of holo-ACP is determined by the HPLC method. […]

Substrate in data set [5]: CC(C)(COP(=O)(O)OP(=O)(O)OC[C@H]1O[C@@H](n2cnc3c(N)ncnc32)[C@H](O)[C@@H]1OP(=O)(O)O)[C@@H](O)C(=O)NCCC(=O)NCCS
The data set can be described thus: TCA precipitation AcpS assay ([3H]CoA incorporation into apo-ACP). It is filed as biochemical, Streptococcus pneumoniae. The note with it: other: TCA precipitation method. The method, then: AcpS activity is also assayed by using a TCA precipitation method (Lambalot and Walsh, 1995). This method measures the incorporation of the 3H-labeled 4′-phospho-pantotheine group from [^3H]CoA into apo-ACP. Reaction conditions are the same as those described for the HPLC assay, except that [^3H]COA (specific activity, 1.5 Ci/mmol, NEN Life Science Products, Boston, Mass.) is used alone or in combination with CoA. Reactions are stopped by the addition of 0.9 ml of cold 10% TCA followed by 37 μg of bovine serum albumin (BSA). Precipitated protein is collected by centrifugation (a microfuge at 14,000 rpm) for 5 min and washed twice with ice-cold 10% TCA. The protein collected is resuspended in 150 μl of 1M Tris base and 0.1% Triton X-100. The resulting suspension (100 μl) is mixed with 2.5 ml of Ready Protein+scintillation fluid (Beckman, Fullerton, Calif.), and counted using an LS 60001C scintillation counter (Beckman).
For the determination of Km and Vmax (kcat) of AcpS for apo-ACP, reaction mixtures (in quadruplicate) contain 20 μM CoA, 0.25 to 100 μM apo-ACP, and 3.7 nM. AcpS. The formation of holo-ACP is measured by the HPLC method or the TCA precipitation method. To determine Km for CoA, the reaction conditions are the same as those described above except that the concentration of apo-ACP is 2.0 μM, and the concentrations of CoA were 5 to 600 μM.

Consider eight molecules from patent publication US20030068802A1, “Use of streptococcus pneumoniae acyl carrier protein synthase crystal structure in diagnostics, antimicrobial drug design, and biosensors” (priority 2000, published 2003).

Consider `CC(=O)CC(=O)SCCNC(=O)CCNC(=O)[C@H](O)C(C)(C)COP(=O)(O)OP(=O)(O)OC[C@H]1O[C@@H](n2cnc3c(N)ncnc32)[C@H](O)[C@@H]1OP(=O)(O)O` [acetoacetyl-CoA], for which the “relative activity as substrate of AcpS” value in data set [1] came out at 65.

`CC(C)(COP(=O)(O)OP(=O)(O)OC[C@H]1O[C@@H](n2cnc3c(N)ncnc32)[C@H](O)[C@@H]1OP(=O)(O)O)[C@@H](O)C(=O)NCCC(=O)NCCS` [CoA, Coenzyme A]: in data set [1], the “relative activity as substrate of AcpS” value amounted to 100. Further, the “binding to AcpS in the absence of the other substrate” value in data set [2] was “does not appear to bind”.

As for `CC(C)(COP(=O)(O)OP(=O)(O)OC[C@H]1O[C@@H](n2cnc3c(N)ncnc32)[C@H](O)[C@@H]1O)[C@@H](O)C(=O)NCCC(=O)NCCS` [dephospho-CoA], the “relative activity as substrate of AcpS” value in data set [1] was 0.

As a reminder, the Ki is a dissociation constant, usually derived from enzyme kinetics or from competition with a known ligand. A low value points to a stronger hold on the target. With `Nc1ncnc2c1ncn2[C@@H]1O[C@H](COP(=O)(O)O)[C@@H](OP(=O)(O)O)[C@H]1O` [3′,5′-ADP, 3′,5′-adenosine diphosphate], the inhibitory constant (Ki) in data set [1] (inhibition of AcpS activity with respect to CoA, various CoA concentrations, fixed apo-ACP 1.0 μM, Dixon plot FIG. 7C) came out at 6 µM; in data set [1] (inhibition of AcpS activity with respect to apo-ACP, various apo-ACP concentrations, fixed CoA 20 μM, Dixon plot FIG. 7D), 2.5 µM. Moreover, the “pattern of inhibition with respect to CoA (double reciprocal plots)” value in data set [1] (various CoA, fixed apo-ACP) is given as “simple competitive pattern”. For the same molecule, in data set [1] (various apo-ACP, fixed CoA), the “pattern of inhibition with respect to apo-ACP (double reciprocal plots)” value is “linear-mixed pattern”.

As to `CCNC(=O)CCNC(=O)[C@H](O)C(C)(C)COP(=O)(O)OP(=O)(O)OC[C@H]1O[C@@H](n2cnc3c(N)ncnc32)[C@H](O)[C@@H]1OP(=O)(O)O` [desulfo-CoA], in data set [1], the “relative activity as substrate of AcpS” value came out at 76.

In the case of `CC(=O)SCCNC(=O)CCNC(=O)[C@H](O)C(C)(C)COP(=O)(O)OP(=O)(O)OC[C@H]1O[C@@H](n2cnc3c(N)ncnc32)[C@H](O)[C@@H]1OP(=O)(O)O` [acetyl-CoA], the “relative activity as substrate of AcpS” value in data set [1] stood at 91.

In the case of `CC(C)(COP(=O)(O)OP(=O)(O)OC[C@H]1O[C@@H](n2cnc3c(N)ncnc32)[C@H](O)[C@@H]1OP(=O)(O)O)[C@@H](O)C(=O)NCCC(=O)NCCSC(=O)CC(=O)O` [malonyl-CoA], the “relative activity as substrate of AcpS” value in data set [1] came to 12.

B1: purified AcpS of S. pneumoniae (Streptococcus pneumoniae R6) (protein)
chain: T1 sequence (P0A2W7 1-120)
notes: made in house; host or cells: E. coli BL21 (pLysS)/pRBP-19 (pET-11a)
As a reminder, the Km is the substrate concentration at which the rate is half of its maximum. B1: in data set [3], the “Km (for apo-ACP), HPLC assay of holo-ACP formation, high apo-ACP concentrations” value turned out to be 109 ± 6.8 µM; the Km (for apo-ACP), HPLC assay of holo-ACP formation, low apo-ACP concentrations was determined as 0.5 µM; the apparent Km for apo-ACP, TCA precipitation assay with [3H]CoA worked out at 1.3 µM; the “fold decrease of affinity (Km) at high versus low apo-ACP concentrations” value is listed as “approximately 200-fold”. Also, in data set [4], the Michaelis constant (Km) was 11.5 ± 0.9 µM. Besides, in data set [5], the Km worked out at 7.1 ± 0.4 µM.
